The source made the active and inactive calls. No rule for the calls is given here.

The data set relates to CCRIS mutagenicity, Ames/micronucleus/aberration tests. Briefly: CCRIS mutagenicity studies.
[1] abbreviates: Test System: AMES SALMONELLA TYPHIMURIUM, Strain/Indicator: TA98, Metabolic Activation: HAMSTER, LIVER, S-9, AROCLOR 1254 (10%), Method: PREINCUBATION
[2] abbreviates: Test System: AMES SALMONELLA TYPHIMURIUM, Strain/Indicator: TA98, Metabolic Activation: NONE, Method: PREINCUBATION
Setting [3] is: Test System: AMES SALMONELLA TYPHIMURIUM, Strain/Indicator: TA98, Metabolic Activation: RAT, LIVER, S-9, AROCLOR 1254 (10%), Method: PREINCUBATION
Where [4] appears, read: Test System: AMES SALMONELLA TYPHIMURIUM, Strain/Indicator: TA100, Metabolic Activation: HAMSTER, LIVER, S-9, AROCLOR 1254 (10%), Method: PREINCUBATION
Setting [5] is: Test System: AMES SALMONELLA TYPHIMURIUM, Strain/Indicator: TA100, Metabolic Activation: NONE, Method: PREINCUBATION
Setting [6] is: Test System: AMES SALMONELLA TYPHIMURIUM, Strain/Indicator: TA100, Metabolic Activation: RAT, LIVER, S-9, AROCLOR 1254 (10%), Method: PREINCUBATION
[7] abbreviates: Test System: AMES SALMONELLA TYPHIMURIUM, Strain/Indicator: TA1535, Metabolic Activation: HAMSTER, LIVER, S-9, AROCLOR 1254 (10%), Method: PREINCUBATION
The mark [8] stands for this setting: Test System: AMES SALMONELLA TYPHIMURIUM, Strain/Indicator: TA1535, Metabolic Activation: NONE, Method: PREINCUBATION
Where [9] appears, read: Test System: AMES SALMONELLA TYPHIMURIUM, Strain/Indicator: TA1535, Metabolic Activation: RAT, LIVER, S-9, AROCLOR 1254 (10%), Method: PREINCUBATION
Where [10] appears, read: Test System: AMES SALMONELLA TYPHIMURIUM, Strain/Indicator: TA98, Metabolic Activation: NONE, Method: STANDARD PLATE.
[11] abbreviates: Test System: AMES SALMONELLA TYPHIMURIUM, Strain/Indicator: TA100, Metabolic Activation: NONE, Method: STANDARD PLATE.

Consider `O=S(=O)(O)NC1CCCCC1`, for which the mutagenic call runs as follows: (Test System: CHINESE HAMSTER OVARY, Strain/Indicator: CHO-K1-BH4 (HGPRT), Metabolic Activation: NONE, Method: STANDARD PLATE) “inactive; negative”; (Test System: CHINESE HAMSTER OVARY, Strain/Indicator: CHO-K1-BH4 (HGPRT), Metabolic Activation: RAT, LIVER, S-9, Method: STANDARD PLATE) “inactive; negative”; (Test System: UDS RODENT HEPATOCYTES, Strain/Indicator: THY INCORP (NON-S-PHASE), Metabolic Activation: NONE, Method: AUTORADIOGRAPHY) “inactive; negative”.
`CCCCC(CC)CNCC(CC)CCCC` (centres undefined): the mutagenic call (Test System: AMES SALMONELLA TYPHIMURIUM, Strain/Indicator: TA97, Metabolic Activation: HAMSTER, LIVER, S-9, AROCLOR 1254 (10%), Method: PREINCUBATION) is “inactive; negative”; the mutagenic call (Test System: AMES SALMONELLA TYPHIMURIUM, Strain/Indicator: TA97, Metabolic Activation: HAMSTER, LIVER, S-9, AROCLOR 1254 (30%), Method: PREINCUBATION) was “inactive; negative”; the mutagenic call (Test System: AMES SALMONELLA TYPHIMURIUM, Strain/Indicator: TA97, Metabolic Activation: NONE, Method: PREINCUBATION) was “inactive; negative”; the mutagenic call (Test System: AMES SALMONELLA TYPHIMURIUM, Strain/Indicator: TA97, Metabolic Activation: RAT, LIVER, S-9, AROCLOR 1254 (10%), Method: PREINCUBATION) was “inactive; negative”; the mutagenic call (Test System: AMES SALMONELLA TYPHIMURIUM, Strain/Indicator: TA97, Metabolic Activation: RAT, LIVER, S-9, AROCLOR 1254 (30%), Method: PREINCUBATION) is “inactive; negative”; the mutagenic call under setting [1] is “inactive; negative”. Besides, the mutagenic call (Test System: AMES SALMONELLA TYPHIMURIUM, Strain/Indicator: TA98, Metabolic Activation: HAMSTER, LIVER, S-9, AROCLOR 1254 (30%), Method: PREINCUBATION) was “inactive; negative”; the mutagenic call under setting [2] was “inactive; negative”; the mutagenic call under setting [3] is “inactive; negative”; the mutagenic call (Test System: AMES SALMONELLA TYPHIMURIUM, Strain/Indicator: TA98, Metabolic Activation: RAT, LIVER, S-9, AROCLOR 1254 (30%), Method: PREINCUBATION) is “inactive; negative”; the mutagenic call under setting [4] was “inactive; negative”; the mutagenic call (Test System: AMES SALMONELLA TYPHIMURIUM, Strain/Indicator: TA100, Metabolic Activation: HAMSTER, LIVER, S-9, AROCLOR 1254 (30%), Method: PREINCUBATION) was “inactive; negative”. For the same molecule, the mutagenic call was “inactive; negative” under setting [5]; “inactive; negative” under setting [6]; “inactive; negative” (Test System: AMES SALMONELLA TYPHIMURIUM, Strain/Indicator: TA100, Metabolic Activation: RAT, LIVER, S-9, AROCLOR 1254 (30%), Method: PREINCUBATION); “inactive; negative” under setting [7]; “inactive; negative” (Test System: AMES SALMONELLA TYPHIMURIUM, Strain/Indicator: TA1535, Metabolic Activation: HAMSTER, LIVER, S-9, AROCLOR 1254 (30%), Method: PREINCUBATION); “inactive; negative” under setting [8]. The mutagenic call is “inactive; negative” under setting [9] and “inactive; negative” (Test System: AMES SALMONELLA TYPHIMURIUM, Strain/Indicator: TA1535, Metabolic Activation: RAT, LIVER, S-9, AROCLOR 1254 (30%), Method: PREINCUBATION).
In the case of `Cc1ccc(N=Nc2ccc(N(CCO)CCO)cc2)cc1`, the mutagenic call reads like this: (Test System: AMES SALMONELLA TYPHIMURIUM, Strain/Indicator: TA98, Metabolic Activation: HAMSTER, LIVER, S-9, AROCLOR 1254, Method: STANDARD PLATE) “inactive; negative”; under setting [10], “inactive; negative”; (Test System: AMES SALMONELLA TYPHIMURIUM, Strain/Indicator: TA98, Metabolic Activation: RAT, LIVER, S-9, AROCLOR 1254, Method: PREINCUBATION) “inactive; negative”; (Test System: AMES SALMONELLA TYPHIMURIUM, Strain/Indicator: TA98, Metabolic Activation: RAT, LIVER, S-9, AROCLOR 1254, Method: STANDARD PLATE) “inactive; negative”; under setting [11], “inactive; negative”; (Test System: AMES SALMONELLA TYPHIMURIUM, Strain/Indicator: TA100, Metabolic Activation: RAT, LIVER, S-9, AROCLOR 1254, Method: STANDARD PLATE) “inactive; negative”. For the same molecule, the mutagenic call is, setting by setting: (Test System: AMES SALMONELLA TYPHIMURIUM, Strain/Indicator: TA1535, Metabolic Activation: NONE, Method: STANDARD PLATE) “inactive; negative”; (Test System: AMES SALMONELLA TYPHIMURIUM, Strain/Indicator: TA1535, Metabolic Activation: RAT, LIVER, S-9, AROCLOR 1254, Method: STANDARD PLATE) “inactive; negative”; (Test System: AMES SALMONELLA TYPHIMURIUM, Strain/Indicator: TA1537, Metabolic Activation: NONE, Method: STANDARD PLATE) “inactive; negative”; (Test System: AMES SALMONELLA TYPHIMURIUM, Strain/Indicator: TA1537, Metabolic Activation: RAT, LIVER, S-9, AROCLOR 1254, Method: STANDARD PLATE) “inactive; negative”; (Test System: AMES SALMONELLA TYPHIMURIUM, Strain/Indicator: TA1538, Metabolic Activation: NONE, Method: STANDARD PLATE) “inactive; negative”; (Test System: AMES SALMONELLA TYPHIMURIUM, Strain/Indicator: TA1538, Metabolic Activation: RAT, LIVER, S-9, AROCLOR 1254, Method: STANDARD PLATE) “inactive; negative”.
`ClCc1cc2c3c(cccc3c1)-c1ccccc1-2`: the mutagenic call is “active; positive” under setting [10] and “active; positive” under setting [11].
Regarding `Cc1cc2cccc3ccc4c5ccccc5cc1c4c32`, the mutagenic call (Test System: AMES SALMONELLA TYPHIMURIUM, Strain/Indicator: TA100, Metabolic Activation: RAT, NADPH-FORTIFIED HOMOGENIZED HEPATOCYTES, AROCLOR 1254, Method: PREINCUBATION) is “active; positive”.
Take `CCOP(=O)(Oc1ccc([N+](=O)[O-])cc1)c1ccccc1` (centres undefined): the mutagenic call is “active; positive” under setting [10]; “inactive; negative” (Test System: AMES SALMONELLA TYPHIMURIUM, Strain/Indicator: TA98, Metabolic Activation: RAT, LIVER, S-9, Method: STANDARD PLATE); “inactive; negative” under setting [11]; “inactive; negative” (Test System: AMES SALMONELLA TYPHIMURIUM, Strain/Indicator: TA100, Metabolic Activation: RAT, LIVER, S-9, Method: STANDARD PLATE).
For the molecule `CNCCS(=O)(=O)O`, the mutagenic call is, setting by setting: under setting [1], “inactive; negative”; under setting [2], “inactive; negative”; under setting [3], “inactive; negative”; under setting [4], “inactive; negative”; under setting [5], “inactive; negative”; under setting [6], “inactive; negative”. Besides, the mutagenic call under setting [7] was “inactive; negative”; the mutagenic call under setting [8] is “inactive; negative”; the mutagenic call under setting [9] is “inactive; negative”; the mutagenic call (Test System: AMES SALMONELLA TYPHIMURIUM, Strain/Indicator: TA1537, Metabolic Activation: HAMSTER, LIVER, S-9, AROCLOR 1254 (10%), Method: PREINCUBATION) was “inactive; negative”; the mutagenic call (Test System: AMES SALMONELLA TYPHIMURIUM, Strain/Indicator: TA1537, Metabolic Activation: NONE, Method: PREINCUBATION) was “inactive; negative”; the mutagenic call (Test System: AMES SALMONELLA TYPHIMURIUM, Strain/Indicator: TA1537, Metabolic Activation: RAT, LIVER, S-9, AROCLOR 1254 (10%), Method: PREINCUBATION) was “inactive; negative”.

Values taken from PubChem BioAssay AID1259407 (Chemical Carcinogenesis Research Information System (CCRIS), 2018).
